The record followed here is patent publication US11077100B2, “Tetrahydroquinoline derivatives as P2X7 receptor antagonists” (RaQualia Pharma Inc., priority 2017, dated 2021).

SMILES strings stand for the structures. Where only a bound is given, the exact number is not on record here.

human P2X7, sequence (Q99572 whole entry): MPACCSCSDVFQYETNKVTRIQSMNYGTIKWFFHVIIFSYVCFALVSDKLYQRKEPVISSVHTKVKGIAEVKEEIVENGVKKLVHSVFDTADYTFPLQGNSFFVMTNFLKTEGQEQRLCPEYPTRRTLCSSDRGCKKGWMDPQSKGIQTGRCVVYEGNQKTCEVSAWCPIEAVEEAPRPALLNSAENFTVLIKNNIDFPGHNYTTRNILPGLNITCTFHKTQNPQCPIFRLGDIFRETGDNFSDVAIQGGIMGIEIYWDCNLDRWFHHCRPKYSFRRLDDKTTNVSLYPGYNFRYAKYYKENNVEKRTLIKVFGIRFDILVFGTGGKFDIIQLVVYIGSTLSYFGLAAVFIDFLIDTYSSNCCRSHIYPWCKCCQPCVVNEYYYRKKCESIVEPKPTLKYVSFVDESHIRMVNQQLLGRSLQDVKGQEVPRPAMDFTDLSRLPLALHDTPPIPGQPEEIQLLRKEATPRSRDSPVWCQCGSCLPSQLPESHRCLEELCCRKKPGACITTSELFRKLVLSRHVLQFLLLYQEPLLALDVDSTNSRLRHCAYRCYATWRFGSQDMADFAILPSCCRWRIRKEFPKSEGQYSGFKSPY

For this test, the target named is human P2X7 (Homo sapiens (Human), UniProt Q99572). The test is described as follows: Human P2X7 functional assay (Ca2+ influx, Fluo-4, FDSS). It is filed as cell-based. As to conditions: antagonistic activity with respect to the human P2X7 receptor; BzATP final concentration 80 microM. On the procedure:
The ability of the 5,6,7,8-tetrahydroquinoline and 6,7-dihydro-5H-cyclopenta[b]pyridine derivatives of the formula (I) to inhibit the P2X7 channel was measured by Ca^2+ influx assay and electrophysiology assay described below.
Human P2X7 Functional Assay
The functional activity of compounds was determined by measuring changes in intracellular calcium concentration using a Ca^2+-sensitive fluorescent dye, Fluo-4 (Molecular Probes). The changes in fluorescent signal were monitored by the cell imaging technology by Hamamatsu Photonics's Functional Drug Screening System (FDSS). Increases in intracellular Ca^2+ concentration were readily detected upon activation with BzATP.
HEK293 cells stably expressing human P2X7 (GenBank accession number BC011913) carrying a C-terminal FLAG tag were grown in T225 flasks, in a 5% CO2 humidified incubator to about 80% confluence. Media composition consisted of Dulbecco's Modified Eagle Medium (high glucose), 10% fetal bovine serum ([…]), 100 units/[…] Penicillin, 100 microg/mL Streptomycin and 250 microg/mL Geneticine.
1. Plate-out HEK293-human P2X7 cells (40 microL medium containing 10,000 cells per well) into poly-D-lysine coated 384-well plates (Corning) at 24 h prior to assay.
2. Incubate at 37° C. in 5% CO2.
3. Incubate the plate at 37° C. in 5% CO2 for 1 h.
5. Test compounds were prepared at 100× the test concentration in DMSO by serial dilution with Biomek-FX liquid handling instrument. 33× diluted compound solutions in assay buffer were prepared in intermediate compound plate with Biomek-NX liquid handling instrument. A further 3× dilution occurred in below steps 6 and 7.
6. Add 20 microL of 33× diluted compound solutions into each well and leave the plate for 10 min under the dark at room temperature.
7. Measure activity by FDSS as follows: • Set the assay plate on the stacker of FDSS. • Start the detection of fluorescence intensity at 540 nm by 480 nm exicitation. • After 30 seconds, add 20 microL of assay buffer containing 240 microM BzATP (final concentration 80 microM).
IC50 values for compounds of the present invention were determined from 7-point dose-response studies. Curves were generated using the average of duplicate wells for each data point. Finally, the IC50 values are calculated with the best-fit dose curve determined by XLfit (ID Business Solutions Ltd.).
With `O=C(NCc1ccc(F)cc1C(F)(F)F)[C@H]1CC[C@H](O)c2ncccc21` [Example 75, (5S,8S)-N-(4-fluoro-2-(tri-fluoromethyl)benzyl)-8-hydroxy-5,6,7,8-tetra-hydroquinoline-5-carbox-amide], the IC50 fell in the range of 1 to 3 µM. In turn, `O=C1CO[C@@]2(CC[C@](F)(C(=O)NCc3ccc(Cl)cc3Cl)c3cccnc32)CN1` [Example 293, (2S,5′R)-N-(2,4-dichlorobenzyl)-5′-fluoro-5-oxo-6′,7′-dihydro-5′H-spiro [morpholine-2,8′-quinoline]-5′-carboxamide] registered a 50% inhibitory concentration (IC50) of 1 to 3 µM. For `COc1ccc(CNC(=O)[C@]2(F)CC[C@H](O)c3ncccc32)c(C(F)(F)F)c1` [Example 211, (5S,8S)-5-fluoro-8-hydroxy-N-(4-methoxy-2-(trifluoromethyl)benzyl)-5,6,7,8-tetrahydroquinoline-5-carboxamide] the value was 0.101 to 0.3 µM; for `O=C(NCc1ccc(Cl)cc1Cl)[C@@]1(F)CC[C@@H](OCCO)c2ncccc21` [Example 348, (5R,8R)-N-(2,4-dtchlorobenzyl)-5-fluoro-8-(2-hydroxyethoxy)-5.6,7,8-tetrahydroquinoline-5-carboxamide], 0.101 to 0.3 µM. The compound `CC(C)(C)CCNC(=O)[C@]1(F)CC[C@H](O)c2ncccc21` [Example 227, (5S,8S)-N-(3,3-dimethylbutyl)-5-fluoro-8-hydroxy-5,6,7,8-tetrahydroquinoline-5-carboxamide] returned an IC50 of 1 to 3 µM. For `O=C(NCCOc1cccc(C(F)(F)F)c1)[C@]1(F)CC[C@H](O)c2ncccc21` [Example 219] the value was 0.301 to 1 µM. As to `O=C(NCc1c(Cl)ccc(Cl)c1Cl)[C@]1(F)CC[C@@H](O)c2ncccc21` [Example 124, (5S,8R)-5-fluoro-8-hydroxy-N-(2,3,6-trichlorobenzyl)-5,6,7,8,- tetrahydroquinoline-5-carboxamide], the 50% inhibitory concentration (IC50) is 0.101 to 0.3 µM.

`O=C(NCc1ccc(Cl)cc1F)[C@H]1CC[C@@H](O)c2ncccc21` [Example 96, (5S,8R)-N-(4-chloro-2-fluorobenzyl)-8-hydroxy-5,6,7,8-tetrahydroquinoline-5-carboxamide] returned a 50% inhibitory concentration (IC50) of 1 to 3 µM. In turn, `O=C1CCC(C(=O)NCC2CCCCCC2)c2cccnc21` (centres unmarked) [Example 5, N-(cycloheptylmethyl)-8-oxo-5,6,7,8-tetrahydro-quinoline-5-carboxamide] registered an IC50 of 1 to 3 µM.

As to `O=C(NCc1ccc(F)cc1F)[C@]1(F)CC[C@@H](O)c2ncccc21` [Example 109, (5S,8R)-N-(2,4-difluoro-benzyl)-5-fluoro-8-hydroxy-5,6,7,8-tetrahydroquinoline-5-carboxamide], the IC50 was in the range of 0.301 to 1 µM. `O=C(NCc1cccc(Cl)c1Cl)[C@@]1(F)CC[C@H](O)c2ncccc21` [Example 120, (5R,8S)-N-(2,3-dichlorobenzyl)-5-fluoro-8-hydroxy-5,6,7,8-tetrahydroquinoline-5-carboxamide] came in with an IC50 of 1 to 3 µM. For `O=C(NCc1ccccc1F)[C@]1(F)CC[C@H](O)c2ncccc21` [Example 223, (5S,8S)-5-fluoro-N-(2-fluorobenzyl)-8-hydroxy-5,6,7,8-tetrahydroquinoline-5-carboxamide] the value was 0.301 to 1 µM; for `C[C@@]1(O)CC[C@@](F)(C(=O)NCC2(N3CCOCC3)CCCCC2)c2cccnc21` [Example 275, (5S,8R)-5-fluoro-8-hydroxy-8-methyl-N-((1-morpholinocyclohexyl)methyl)-5,6,7,8-tetrahydroquinoline-5-carboxamide], 1 to 3 µM; for `O=C(NCc1ccc(Br)cc1F)[C@H]1CC[C@H](O)c2ncccc21` [Example 79, (5S,8S)-N-(4-bromo-2-fluorobenzyl)-8-hydroxy-5,6,7,8-tetrahydroquinoline-5-carboxamide], 0.301 to 1 µM. In the case of `O=C(N[C@@H]1C[C@H]1c1ccccc1)[C@]1(F)CC[C@H](O)c2ncccc21` [Example 222, (5S,8S)-5-fluoro-8-hydroxy-N-((1R,2S)-2-phenylcyclopropyl)-5,6,7,8-tetrahydroquinoline-5-carboxamide] it was 0.301 to 1 µM; in that of `Cc1cc(Cl)cc(Cl)c1CNC(=O)C1CC[C@H](O)c2ncccc21` (stereo partly drawn) [Example 64, (5R,8S)-N-(2,4-dichloro-6-methylbenzyl)-8-hydrdroxy-5,6,7,8-tetra-hydroxyquinoline-5-carboxamide], less than 0.05 µM; in that of `O=C(NCc1c(F)cc(Cl)cc1Cl)[C@H]1CC[C@@H](O)c2ncccc21` [Example 92, (5S,8R)-N-(2,4-dichloro-6-fluorobneyzl)-8-hy-droxy-5,6,7,8-tetrahydro-quinoline-5-carboxamide], 0.101 to 0.3 µM. On to `O=C(NCc1cc(C(F)(F)F)ccc1Cl)[C@]1(F)CC[C@H](O)c2ncccc21` [Example 209, (5S,8S)-N-(2-chloro-5-(trifluoromethyl)benzyl)-5-fluoro-8-hydroxy-5,6,7,8-tetrahydroquinoline 5-carboxamide], for which the IC50 was 0.101 to 0.3 µM. Compound `O=C(NCc1c(F)cc(F)cc1F)[C@@H]1CC[C@H](O)c2ncccc21` [Example 73, (5R,8S)-8-hydroxy-N-(2,4,6-trifluorobenzyl)-5,6,7,8-tetrahydroquinoline-5-carboxamide] displayed an IC50 of 0.101 to 0.3 µM. For `O=C(NCc1nc(-c2ccc(Cl)cc2)cs1)[C@]1(F)CC[C@H](O)c2ncccc21` [Example 213, (5S,8S)-N-((4-(4-chlorophenyl)thiazol-2-yl)methyl)-5-fluoro-8-hydroxy-5,6,7,8-tetrahydroquinoline-5-carboxamide] the value was 0.101 to 0.3 µM; for `C[C@@H](NC(=O)[C@@]1(F)CC[C@@H](O)c2ncccc21)c1ccc(Cl)cc1Cl` [Example 155, (5R,8R)-N-((R)-1-(2,4-dichlorophenyl)ethyl)-5-fluoro-8-hydroxy-5,6,7,8-tetrahydroquinoline-5-carboxamide], 0.05 to 0.1 µM; for `O=C(NCc1c(Cl)cc(C(F)(F)F)cc1Cl)[C@@]1(F)CC[C@@H](O)c2ncccc21` [Example 147, (5R,8R)-N-(2,6-dichloro-4-(trifluoromethyl)benzyl)-5-fluoro-8-hydroxy-5,6,7,8-tetrahydroquinoline-5-carboxamide], less than 0.05 µM. Compound `Cc1cc(Cl)cc(Cl)c1CNC(=O)[C@H]1CC[C@H](O)c2ncccc21` [Example 63, (5S,8S)-N-(2,4-dichloro-6-methylbenzyl)-8-hydroxy-5,6,7,8-tetrahydro-quinoline-5-carboxamide] registered a half-maximal inhibitory concentration (IC50) of 0.101 to 0.3 µM. For the compound `O=C(NCc1cc(F)c(F)cc1Cl)[C@]1(F)CC[C@@H](O)c2ncccc21` [Example 123, (5S,8R)-N-(2-chloro-4,5-difluorobenzyl)-5-fluoro-8-hydroxy-5,6,7,8,- tetrahydroqunioline-5-carboxamide], the IC50 lay in the range of 0.101 to 0.3 µM.

In turn, `O=C(NCc1c(Cl)cc(C(F)(F)F)cc1Cl)[C@]1(F)CC[C@@H](O)c2ncccc21` [Example 113, (5S,8R)-N-(2,6-dichloro-4-(trifluoromethyl)benzyl)-5-fluoro-8-hydroxy-5,6,7,8-tetrahydroquinoline-5-carboxamide] registered an IC50 of less than 0.05 µM.

In the case of `O=C(NCc1ccc(Cl)cc1Cl)[C@@]1(F)CC[C@H](O)c2ncccc21` [Example 105, (5R,8S)-N-(2,4-dichlorobenzyl)-5-fluoro-8-hydroxy-5,6,7,8-tetrahydroquinoline-5-carboxamide], the half-maximal inhibitory concentration (IC50) lay within 0.301 to 1 µM.
